From paper PMC8536124 (International Journal of Molecular Sciences, 2021)
Read-outs that look alike come from different tables or passages of the source.

Key:
[1] = test system: HCT-15; test: NCI-60 screening (SRB); type: cell-based, human; conditions: five-dose
[2] = test system: SW-620; test: NCI-60 screening (SRB); type: cell-based, human; conditions: five-dose
[3] = test system: NCI-H460; test: NCI-60 screening (SRB); type: cell-based, human; conditions: five-dose
[4] = test system: DU-145; test: NCI-60 screening (SRB); type: cell-based, human; conditions: five-dose
[5] = test system: COLO 205; test: NCI-60 screening (SRB); type: cell-based, human; conditions: five-dose
[6] = test system: NCI/ADR-RES; test: NCI-60 screening (SRB); type: cell-based, human; conditions: five-dose
[7] = test system: SF-539; test: NCI-60 screening (SRB); type: cell-based, human; conditions: SF-539, five-dose
[8] = test system: HOP-62; test: NCI-60 screening (SRB); type: cell-based, human; conditions: five-dose
[9] = test system: OVCAR-3; test: NCI-60 screening (SRB); type: cell-based, human; conditions: five-dose
[10] = test system: RPMI-8226; test: NCI-60 screening (SRB); type: cell-based, human; conditions: five-dose
[11] = test system: MOLT-4; test: NCI-60 screening (SRB); type: cell-based, human; conditions: five-dose
[12] = test system: MDA-MB-468; test: NCI-60 screening (SRB); type: cell-based, human; conditions: five-dose
[13] = test system: NCI-60 cancer cell line panel; test: NCI-60 screening (SRB), full panel; type: cell-based, human; conditions: for activity at 10 µM: 60 cell lines, 48 h
Text: (§1) The experimental data allow the assessment of the cytostatic effect, indicated by growth inhibition values ranging between 0 and 100, as well as of the cytotoxic effect, indicated by negative values.
(§2) The mean GI50 (molar concentration of the compound that inhibits 50% net cell growth), TGI (molar concentration of the compound leading to the total inhibition), and LC50 (molar concentration of the compound leading to 50% net cell death (presented in negative logarithm)) values across each cell line are shown in Table 2.
(§3) The selectivity index (SI), calculated as the ratio between the full panel MG_MID60 (μM) of compounds 4, 6, and 9 by their respective subpanels MG_MID of the cell line (μM), was introduced as a quantification tool for the selectivity of each compound in terms of anticancer effect (Table 3).
(§4) Primary anticancer assays were performed according to the NCI protocol, as described elsewhere (see e.g., http://dtp.nci.nih.gov accessed on 1 November 2018). The compounds were added at a single concentration, and the cell cultures were incubated for 48 h. The end point determinations were made with a protein-binding dye, sulforhodamine B (SRB). […] The percentage of growth was evaluated spectrophotometrically versus controls not treated with test agents after 48 h exposure and using SRB protein assay to estimate cell viability or growth. Three antitumor activity dose-response parameters were calculated for each cell line. Furthermore, mean graph midpoints (MG_MID) were calculated for each of the parameters, giving an average activity parameter over all cell lines for the tested compound. For the MG_MID calculation, insensitive cell lines were included with the highest concentration tested.

[14] = test system: T-47D; test: NCI-60 screening (SRB); type: cell-based, human; conditions: five-dose
[15] = test system: MDA-MB-435; test: NCI-60 screening (SRB); type: cell-based, human; conditions: five-dose
[16] = test system: SN12C; test: NCI-60 screening (SRB); type: cell-based, human; conditions: five-dose
[17] = test system: SF-295; test: NCI-60 screening (SRB); type: cell-based, human; conditions: five-dose
[18] = test system: HCC-2998; test: NCI-60 screening (SRB); type: cell-based, human; conditions: five-dose
[19] = test system: A498; test: NCI-60 screening (SRB); type: cell-based, human; conditions: A498, five-dose
[20] = test system: HOP-92; test: NCI-60 screening (SRB); type: cell-based, human; conditions: five-dose
[21] = test system: CNS cancer; test: cells; type: cell-based
Text: as §1, §2, §3, §4

[22] = test system: Breast cancer; test: NCI-60 screening (SRB), subpanel; type: cell-based
Text: as §1, §2, §3, §4

[23] = test system: Ovarian cancer; test: NCI-60 screening (SRB), subpanel; type: cell-based
Text: as §1, §2, §3, §4

[24] = test system: SK-MEL-5; test: NCI-60 screening (SRB); type: cell-based, human
[25] = test system: EKVX; test: NCI-60 screening (SRB); type: cell-based, human; conditions: five-dose
[26] = Homo sapiens, read-out: LC50 (the source's name)

## CCN1CCN(C(=O)[C@]23CCC(C)(C)C[C@H]2C2=CC[C@@H]4[C@@]5(C)C/C(=C/c6cccnc6)C(=O)C(C)(C)[C@@H]5CC[C@@]4(C)[C@]2(C)CC3)CC1 [Compound 6]
[1]; Homo sapiens
  GI50: 1.08 µM
[1]; [26]
  CC50: 6.79 µM
[1]
  TGI: 2.71 µM
[2]; Homo sapiens
  GI50: 1.78 µM
[2]; [26]
  CC50: 8.46 µM
[2]
  TGI: 3.88 µM
[3]; Homo sapiens
  GI50: 1.39 µM
[3]; [26]
  CC50: 6.2 µM
[3]
  TGI: 2.93 µM
[4]; Homo sapiens
  GI50: 1.83 µM
[4]; [26]
  CC50: 8.23 µM
[4]
  TGI: 3.88 µM
[5]; Homo sapiens
  GI50: 1.89 µM
[5]; [26]
  CC50: > 100 µM
[5]
  TGI: 4.74 µM
[6]; Homo sapiens
  GI50: 1.57 µM
[6]; [26]
  CC50: 7.6 µM
[6]
  TGI: 3.46 µM
[7]; Homo sapiens
  GI50: 1.62 µM
[7]; [26]
  CC50: 5.55 µM
[7]
  TGI: 3.00 µM
[8]; Homo sapiens
  GI50: 1.88 µM
  LC50: 7.47 µM
[8]
  TGI: 3.75 µM
[9]; Homo sapiens
  GI50: 1.51 µM
[9]; [26]
  CC50: 5.73 µM
[9]
  TGI: 2.95 µM
[10]; Homo sapiens
  GI50: 1.03 µM
[10]; [26]
  CC50: > 100 µM
[10]
  TGI: 5.20 µM
[11]; Homo sapiens
  GI50: 1.43 µM
[11]; [26]
  CC50: > 100 µM
[11]
  TGI: >100 µM
[12]; Homo sapiens
  GI50: 1.28 µM
[12]; [26]
  CC50: 19.7 µM
[12]
  TGI: 3.94 µM
[13]; 1 dose 10 µM
  Positive Cytostatic Effect (cell lines with percent growth 0 to 50 / total): 30/60
  Positive Cytotoxic Effect (cell lines with percent growth <0 / total): 4/60
[13]; Homo sapiens, five-dose, bound, read-out: GI50 against all human tumor cells
  GI50: < 4 µM
[13]; Homo sapiens, mean graph midpoint, full panel, five-dose, read-out: GI50 MG_MID60
  GI50: 1.52 µM
[13]; Homo sapiens, mean graph midpoint, full panel, five-dose, read-out: LC50 MG_MID60
  CC50: 32.4 µM
[13]; Homo sapiens, 1 dose 10 µM, read-out: Mean Growth, %
  activity at 10 µM: 23.4%
[13]; Homo sapiens, 1 dose 10 µM, read-out: Range of Growth, %
  activity at 10 µM: -91 to 83.8%
[13]; mean graph midpoint, full panel, five-dose
  TGI MG_MID60: 6.29 µM
[13]; mean graph midpoint, full panel, five-dose, read-out: GI50 MG_MID60
  GI50: 1.53 µM
[13]; toward some individual cell lines at the LC50 level
  selectivity class: moderate selectivity (Ratios between 3 and 6 are indicators of moderate selectivity)
[14]; Homo sapiens, T47D
  GI50: 2.61 µM
  LC50 (concentration killing 50% of cells): > 100 µM
[14]
  TGI: 13.7 µM
[15]; Homo sapiens
  GI50: 1.48 µM
[15]; [26]
  CC50: 6.52 µM
[15]
  TGI: 3.11 µM
[16]; Homo sapiens
  GI50: 1.22 µM
[16]; [26]
  CC50: 5.3 µM
[16]
  TGI: 2.54 µM
[17]; Homo sapiens
  GI50: 1.66 µM
[17]; [26]
  CC50: 5.97 µM
[17]
  TGI: 3.15 µM
[18]; Homo sapiens
  GI50: 1.58 µM
[18]; [26]
  CC50: 6.17 µM
[18]
  TGI: 3.12 µM
[19]
  TGI: 3.53 µM
[19]; Homo sapiens
  GI50: 1.66 µM
[19]; [26]
  CC50: 7.48 µM
[20]; Homo sapiens
  GI50: 1.06 µM
[20]; [26]
  CC50: 10.1 µM
[20]
  TGI: 3.26 µM
[21]; CNS cancer subpanel, five-dose
  TGI MG_MID: 3.50 µM
[21]; CNS cancer, MG_MID60/subpanel MG_MID
  SI (TGI): 1.80
[21]; Homo sapiens, CNS cancer subpanel, five-dose, read-out: GI50 MG_MID
  GI50: 1.63 µM
[21]; Homo sapiens, CNS cancer subpanel, five-dose, read-out: LC50 MG_MID
  CC50: 22.1 µM
[22]; Breast cancer subpanel, five-dose
  TGI MG_MID: 5.30 µM
[22]; Breast cancer, MG_MID60/subpanel MG_MID
  SI (TGI): 1.17
[22]; Homo sapiens, Breast cancer subpanel, five-dose, read-out: GI50 MG_MID
  GI50: 1.67 µM
[22]; Homo sapiens, Breast cancer subpanel, five-dose, read-out: LC50 MG_MID
  CC50: 39.6 µM
[23]; Homo sapiens, Ovarian cancer subpanel, five-dose, read-out: GI50 MG_MID
  GI50: 2.15 µM
[23]; Homo sapiens, Ovarian cancer subpanel, five-dose, read-out: LC50 MG_MID
  CC50: 36.2 µM
[23]; Ovarian Cancer, MG_MID60/subpanel MG_MID
  SI (TGI): 1.52
[23]; Ovarian cancer subpanel, five-dose
  TGI MG_MID: 4.14 µM
[24]; Homo sapiens, SK-MEL-5, five-dose
  GI50: 1.63 µM
[24]; Homo sapiens, SK-MEL-5, five-dose, read-out: LC50 (the source's name)
  CC50: 5.54 µM
[24]; SK-MEL-5, 1 dose 10 µM
  Growth %: −91.03%
[24]; SK-MEL-5, five-dose
  TGI: 3.00 µM
[24]; SK-MEL-5 melanoma, 1 dose 10 µM
  cell death: 88.15%
[25]; Homo sapiens
  GI50: 1.9 µM
  LC50: 43.5 µM
[25]
  TGI: 6.48 µM
